Test results reported in patent US11959102B2, “Augmentation of fibroblast regenerative activity” (Figene, LLC, priority 2017, dated 2024).

System: Foreskin fibroblasts
Assay: VEGF production by cultured fibroblasts, ELISA of culture media
Format: cell-based
Settings: media after 24 hours of culture
Method: (§1) Foreskin fibroblasts purchased from ATCC where cultured in T-75 flasks using Fibroblast Basal Media from ATCC. When cells reached 75% confluence, exposure to: a) Normoxia; b) hypoxia (2% oxygen for 4 hours); c) carbon monoxide (250 ppm) for 4 hours; or d) hypoxia followed by carbon monoxide. Cells were re-plated on 96 well plates, flat bottomed, by trypsinization. Concentration of re-plated cells was 0, 10,000, 20,000 and 40,000 cells per well. Culture media was extracted after 24 hours of culture and analyzed for VEGF production using ELISA (R&D Systems). […] No VEGF production was observed from Normoxic Control fibroblasts.
as §1, with “simultaneously as” for “followed by”, “monoxide” for “monoxide.”, “replated” for “re-plated”

## [C-]#[O+] [carbon monoxide]
Hypoxia (2% oxygen for 4 hours) followed by carbon monoxide (250 ppm, 4 hours), FIG. 1
  VEGF production: synergistic increase
Hypoxia (2% oxygen for 4 hours) simultaneously as carbon monoxide (250 ppm), FIG. 2
  VEGF production: synergistic increase
